# Reference: PubChem BioAssay (NCI)
#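 Following 48 hours of exposure in 96-well plates, responses at five concentrations were used to interpolate endpoints linearly. TGI is the concentration that stops growth completely.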
# Key:
# Test in all cases: NCI anticancer screen, dose series, 48 h
# 786-0 renal = test system: 786-0 renal
# A498 renal = test system: A498 renal
# A549 NSCLC = test system: A549 NSCLC
# ACHN renal = test system: ACHN renal
# BT-549 breast = test system: BT-549 breast
# CAKI-1 renal = test system: CAKI-1 renal
# COLO 205 colon = test system: COLO 205 colon
# DU-145 prostate = test system: DU-145 prostate
# EKVX NSCLC = test system: EKVX NSCLC
# HCC-2998 colon = test system: HCC-2998 colon
# HCT-116 colon = test system: HCT-116 colon
# HCT-15 colon = test system: HCT-15 colon
# HL-60(TB) leukemia = test system: HL-60(TB) leukemia
# HOP-62 NSCLC = test system: HOP-62 NSCLC
# HOP-92 NSCLC = test system: HOP-92 NSCLC
# HS 578T breast = test system: HS 578T breast
# HT29 colon = test system: HT29 colon
# IGROV1 ovarian = test system: IGROV1 ovarian
# K-562 leukemia = test system: K-562 leukemia
# KM12 colon = test system: KM12 colon
# LOX IMVI melanoma = test system: LOX IMVI melanoma
# M14 melanoma = test system: M14 melanoma
# MCF7 breast = test system: MCF7 breast
# MDA-MB-231 breast = test system: MDA-MB-231 breast
# MDA-MB-435 = test system: MDA-MB-435
# MDA-N = test system: MDA-N
# MOLT-4 leukemia = test system: MOLT-4 leukemia
# NCI-H226 lung = test system: NCI-H226 lung
# NCI-H460 lung = test system: NCI-H460 lung
# NCI-H522 lung = test system: NCI-H522 lung
# NCI/ADR-RES ovarian = test system: NCI/ADR-RES ovarian
# OVCAR-3 ovarian = test system: OVCAR-3 ovarian
# OVCAR-4 ovarian = test system: OVCAR-4 ovarian
# OVCAR-5 ovarian = test system: OVCAR-5 ovarian
# OVCAR-8 ovarian = test system: OVCAR-8 ovarian
# PC-3 prostate = test system: PC-3 prostate
# RPMI-8226 leukemia = test system: RPMI-8226 leukemia
# SF-268 CNS = test system: SF-268 CNS
# SF-295 CNS = test system: SF-295 CNS
# SF-539 CNS = test system: SF-539 CNS
# SK-MEL-2 melanoma = test system: SK-MEL-2 melanoma
# SK-MEL-28 melanoma = test system: SK-MEL-28 melanoma
# SK-MEL-5 melanoma = test system: SK-MEL-5 melanoma
# SK-OV-3 ovarian = test system: SK-OV-3 ovarian
# SN12C renal = test system: SN12C renal
# SNB-19 CNS = test system: SNB-19 CNS
# SNB-75 CNS = test system: SNB-75 CNS
# SR leukemia = test system: SR leukemia
# SW-620 colon = test system: SW-620 colon
# T-47D breast = test system: T-47D breast
# TK-10 renal = test system: TK-10 renal
# U251 CNS = test system: U251 CNS
# UACC-257 melanoma = test system: UACC-257 melanoma
# UACC-62 melanoma = test system: UACC-62 melanoma
# UO-31 renal = test system: UO-31 renal
structure (smiles),measurement,setting,value
Cc1cccc(-c2cccc(COCc3cccc(-c4cccc(CO)n4)n3)n2)n1,TGI,786-0 renal,> 50 µM
same,TGI,A498 renal,> 50 µM
same,TGI,A549 NSCLC,> 50 µM
same,TGI,ACHN renal,> 50 µM
same,TGI,BT-549 breast,> 50 µM
same,TGI,CAKI-1 renal,> 50 µM
same,TGI,COLO 205 colon,> 50 µM
same,TGI,DU-145 prostate,> 50 µM
same,TGI,EKVX NSCLC,> 50 µM
same,TGI,HCC-2998 colon,> 50 µM
same,TGI,HCT-116 colon,> 50 µM
same,TGI,HCT-15 colon,> 50 µM
same,TGI,HL-60(TB) leukemia,> 50 µM
same,TGI,HOP-62 NSCLC,> 50 µM
same,TGI,HOP-92 NSCLC,> 50 µM
same,TGI,HS 578T breast,> 50 µM
same,TGI,HT29 colon,> 50 µM
same,TGI,IGROV1 ovarian,> 50 µM
same,TGI,K-562 leukemia,> 50 µM
same,TGI,KM12 colon,> 50 µM
same,TGI,LOX IMVI melanoma,> 50 µM
same,TGI,M14 melanoma,> 50 µM
same,TGI,MCF7 breast,> 50 µM
same,TGI,MDA-MB-231 breast,> 50 µM
same,TGI,MDA-MB-435,> 50 µM
same,TGI,MDA-N,> 50 µM
same,TGI,MOLT-4 leukemia,> 50 µM
same,TGI,NCI-H226 lung,> 50 µM
same,TGI,NCI-H460 lung,> 50 µM
same,TGI,NCI-H522 lung,> 50 µM
same,TGI,NCI/ADR-RES ovarian,> 50 µM
same,TGI,OVCAR-3 ovarian,> 50 µM
same,TGI,OVCAR-4 ovarian,> 50 µM
same,TGI,OVCAR-5 ovarian,> 50 µM
same,TGI,OVCAR-8 ovarian,> 50 µM
same,TGI,PC-3 prostate,> 50 µM
same,TGI,RPMI-8226 leukemia,> 50 µM
same,TGI,SF-268 CNS,> 50 µM
same,TGI,SF-295 CNS,> 5 µM
same,TGI,SF-539 CNS,> 50 µM
same,TGI,SK-MEL-2 melanoma,> 50 µM
same,TGI,SK-MEL-28 melanoma,> 50 µM
same,TGI,SK-MEL-5 melanoma,> 50 µM
same,TGI,SK-OV-3 ovarian,> 50 µM
same,TGI,SN12C renal,> 50 µM
same,TGI,SNB-19 CNS,> 50 µM
same,TGI,SNB-75 CNS,> 50 µM
same,TGI,SR leukemia,> 50 µM
same,TGI,SW-620 colon,> 50 µM
same,TGI,T-47D breast,> 50 µM
same,TGI,TK-10 renal,> 50 µM
same,TGI,U251 CNS,> 50 µM
same,TGI,UACC-257 melanoma,> 50 µM
same,TGI,UACC-62 melanoma,> 50 µM
same,TGI,UO-31 renal,> 50 µM
